Publication PMC10424179, “Disrupting Kaposi’s Sarcoma-Associated Herpesvirus (KSHV) Latent Replication with a Small Molecule Inhibitor” (Journal of Medicinal Chemistry, 2023)
Read-outs that look alike come from different tables or passages of the source.

Key:
Kinetic solubility = assay type: physicochemical; settings: PBS with 1% DMSO; 1% DMSO in PBS, pH 7.4
Description: (§1) The next step was an in vitro ADMET profiling of the best seven compounds so far: 9, 11, 14, 19, 20, 21, and 27. The compounds were tested for their kinetic solubility (1% DMSO in PBS, pH 7.4), lipophilicity (chromatographic Log D7.4 value), cellular permeability (using Caco-2 cells), and metabolic stability (using mouse and human liver S9 fractions) (see Table 3).
The desired compounds were sequentially diluted in DMSO in a 96-well plate. 1.5 µL of each well were transferred into another 96-well plate and mixed with 148.5 µL of PBS. Plates were shaken for 5 min at 600 rpm at room temperature (r.t.), and the absorbance at 620 nm was measured. Absorbance values were normalized by blank subtraction and plotted using GraphPad Prism 8.4.2 (GraphPad Software, San Diego, CA, USA). Solubility (S) was determined based on the First X value of AUC function using a threshold of 0.005. […]

[1] = test system: LANA-mediated replication of TR-containing plasmid pGTR4:73 in HEK293 cells; assay: Cell-based replication assay (Southern blot); settings: Homo sapiens
From the text: Figure 3 (A) Illustration of the replication assay. […] (C) Bar graph of the intensity of the pGTR4:73 band after digestion with MfeI and DpnI on the Southern blot shown in panel B at different concentrations for compound 20. Values are means of two replicates.
For the replication assay (Figure 3A), plasmids containing four copies of the terminal repeat of the viral genome and a LANA expression cassette are transfected into HEK293 cells. […] The cells that can express LANA will now amplify the plasmids with the help of LANA and maintain them over several days of cell growth. Where LANA is not expressed, only the transfected plasmids remain and are slowly thinned out by cell growth. After transfection, cells are treated with the compounds or DMSO and allowed to grow for three days. Then, the plasmid DNA is isolated from the cell. The DNA is digested in two separate batches. First, to linearize them (MfeI) and second, with an enzyme (DpnI) that only digests DNA that has a specific methylation pattern derived from the bacteria, in which these plasmids had been amplified. […] One batch contains both enzymes, and only the replicated linearized DNA remains there. The second batch (control) contains only the linearizing enzyme. […] The DNA is separated on a gel by electrophoresis and transferred to a membrane for immobilization (Southern blot). The DNA can then be visualized on this membrane using an enzyme-labeled probe, since the enzyme can generate chemiluminescence with a specific substrate. This assay is designed to specifically probe the LANA-mediated replication of plasmid DNA indicating on-target cellular activity. We performed the assay in a concentration range between 15.625 and 62.5 μM. For compound 20, we observed the strongest inhibitory effect (Figure 3B,C).
This assay is based on protocols described previously and was modified as described in the following. 4 8 x 10^5 HEK 293 cells were plated per well in a 6-well plate. […]

[2] = Metabolic stability in mouse liver S9 fraction; assay type: in vitro ADME; settings: pooled liver S9 fraction, mouse liver S9, 1 μM compound
Description: as §1, with “3). […]” for “3).”
(§2) 1.7 Metabolic Stability in Liver S9 Fractions
(§3) For the evaluation of combined phase I and phase II metabolic stability, the compound (1 μM) was incubated with 1 mg/mL pooled mouse liver S9 fraction (Xenotech, Kansas City, USA) or human liver S9 fraction (Corning, USA), 2 mM NADPH, 1 mM UDPGA, 10 mM MgCl 2, 5 mM GSH and 0.1 mM PAPS at 37 °C for 240 min. The metabolic stability of testosterone, verapamil and ketoconazole were determined in parallel to confirm the enzymatic activity of mouse S9 fractions, for human S9 testosterone, diclofenac and propranolol were used. The incubation was stopped after defined time points by precipitation of aliquots of S9 enzymes with 2 volumes of cold acetonitrile containing internal standard (150 nM diphenhydramine). Samples were stored on ice until the end of the incubation and precipitated protein was removed by centrifugation (15 min, 4 °C, 4,000 g). Concentration of the remaining test compound at the different time points was analyzed by HPLC-MS/MS (TSQ Quantum Access MAX, Thermo Fisher, Dreieich, Germany) and used to determine half -life (t1/2). Values are means of three

[3] = Metabolic stability in human liver S9 fraction; assay type: in vitro ADME; settings: human liver S9, 1 μM compound
Description: as §1, with “3). […]” for “3).”
as §2, §3

COc1ccc(-c2cc(C)c(-n3cc(-c4ccc(C(=O)O)cc4)nn3)cn2)c(Cl)c1 [Compound 20]
solubility kinetic at 5 min (Kinetic solubility): > 200 µM
inhibition at 62.5 µM ([1]; 72 h, HEK293 cells, 62.5 μM, three days of treatment): 67%
IC50 ([1]; 72 h, HEK293 cells, three days of treatment, estimated from Southern blot, read-out: IC50 value (southern blot)): 33.2 ± 3.6 µM
IC50 ([1]; Fig S5B, HEK293 replication assay, read-out: x0 of logistic fit, sigmoidal plot of southern blot (converted)): 33.2 µM
microsomal CLint at 1 µM ([2]; read-out: MetStab Mouse Liver S9 Clint): < 5.8 µL/min/mg
half-life at 1 µM ([2]; read-out: MetStab Mouse Liver S9 t1/2): > 2 h
microsomal CLint at 1 µM ([3]; read-out: MetStab Human Liver S9 Clint): < 5.8 µL/min/mg
half-life at 1 µM ([3]; read-out: MetStab Human Liver S9 t1/2): > 2 h
